Key:
[1] = Distribution coefficient of the compound at pH 7.4 (logD); settings: octanol/water
[2] = The ionization constant (pKa) for the compound
[3] = Partition coefficient of the compound (logP); settings: octanol/water

Row | Compound | logD [1] | pKa [2] | logP [3]
1 | CN(C)CCCNC(=O)c1cc(NC(=O)c2cc(NC(=O)CNC(=O)c3cccc(C(=O)NCC(=O)Nc4cc(C(=O)Nc5cc(C(=O)NCCCN(C)C)n(C)c5)n(C)c4)c3)cn2C)cn1C | -2.74 | 9.5 | 1.47
2 | CN(C)CCCNC(=O)c1cc(NC(=O)c2cc(NC(=O)c3cc(NC=O)cn3C)cn2C)cn1C | 0.07 | 9.5 | 2.17
3 | Cn1cc(NC(=O)c2cc(NC(=O)c3cc(NC=O)cn3C)cn2C)cc1C(=O)NCCC(=N)N [STALLIMYCIN] | -5.87 | 12.4 | -0.87

Now from value to molecule:

Row | logD [1] | pKa [2] | logP [3] | Compound
4 | -1.03 | 9.5 | 3.18 | CN(C)CCCNC(=O)c1cc(NC(=O)c2cc(NC(=O)/C=C/C(=O)Nc3cc(C(=O)Nc4cc(C(=O)NCCCN(C)C)n(C)c4)n(C)c3)cn2C)cn1C
5 | 0.47 | 9.5 | 4.68 | CN(C)CCCNC(=O)c1cc(NC(=O)c2cc(NC(=O)c3cc(NC(=O)c4cc(NC(=O)c5cc(NC(=O)c6cc(NC(=O)CCCN(C)C)cn6C)cn5C)cn4C)cn3C)cn2C)cn1C
6 | -0.32 | 9.5 | 3.89 | CN(C)CCCNC(=O)c1cc(NC(=O)c2cc(NC(=O)c3cc(NC(=O)c4cc(NC(=O)c5cc(NC(=O)CCCN(C)C)cn5C)cn4C)cn3C)cn2C)cn1C

From ChEMBL document CHEMBL1133011, “DNA binding, solubility, and partitioning characteristics of extended lexitropsins” (J Med Chem, 2000)
